Calls of active or inactive are those of the source. The rule behind the calls is not given here.
How the values were obtained:
[1] = molecular target: Melatonin receptor (Gallus gallus, UniProt P49288+P51050+P49285); assay: Binding affinity towards melatonin receptor was determined using 2-[125I]iodomelatonin as radioligand in chick brain membranes; assay type: cell membranes, Membrane
[2] = species: Xenopus laevis; assay: Agonistic activity was determined in a pigment aggregation model using cultured melanophores isolated from the neural crest of Xenopus laevis embryos; assay type: functional, frog
[3] = species: Xenopus laevis; assay: Agonistic activity was determined in a pigment aggregation model using cultured melanophores isolated from the neural crest of Xenopus laevis embryos; partial agonist; assay type: functional; conditions: frog; filed as partial agonist
[4] = species: Xenopus laevis; assay: Agonistic activity was determined in a pigment aggregation model using cultured melanophores isolated from the neural crest of Xenopus laevis embryos; mixed; assay type: functional; conditions: frog; filed as partial agonist
[5] = species: Xenopus laevis; assay: Agonistic activity was determined in a pigment aggregation model using cultured melanophores isolated from the neural crest of Xenopus laevis embryos.; assay type: functional; conditions: frog; filed as agonist
[6] = species: Xenopus laevis; assay: Agonistic activity was determined in a pigment aggregation model using cultured melanophores isolated from the neural crest of Xenopus laevis embryos; inactive; assay type: functional; conditions: frog

| Ki [1] [nM] | Structure (SMILES) | Activity [5] | other results |
| --- | --- | --- | --- |
| 436 | CCC(=O)NC1CCc2[nH]c3ccccc3c2C1 (stereo not given) | – | EC50 [2]: > 10000 nM; Activity [3]: Partial agonist |
| > 10000 | CCC(Br)C(=O)NC1CCc2[nH]c3ccccc3c2C1 (stereo not given) | – | – |
| 8.3 | COc1ccc2[nH]c3c(c2c1)CC(NC(=O)CBr)CC3 (stereo not given) | – | Activity [4]: Partial agonist |
| 766 | Cn1c2c(c3ccccc31)C(NC(=O)C(F)(F)F)CCC2 (stereo not given) | Agonist | – |
| 204 | CCC(=O)NC1CCCc2c1c1ccccc1n2C (stereo not given) | Agonist | – |
| 4630 | O=C(NC1CCc2[nH]c3ccccc3c2C1)C(F)(F)F (stereo not given) | – | – |
| 41 | CCC(=O)NC1CCc2[nH]c3ccc(OC)cc3c2C1 (stereo not given) | – | – |
| > 10000 | CCCCC(=O)NC1CCCc2c1c1ccccc1n2C (stereo not given) | Agonist | – |
| 82 | CCCCC(=O)NC1CCCc2c1c1cc(OC)ccc1n2C (stereo not given) | Agonist | – |
| 570 | COc1ccc2[nH]c3c(c2c1)CC(NC(=O)C1CC1)CC3 (stereo not given) | Agonist | – |
| 227 | CC(=O)NC1CCCc2c1c1ccccc1n2C (stereo not given) | Agonist | – |
| 0.378 | CCCC(=O)NC1CCCc2c1c1cc(OC)ccc1n2C (stereo not given) | Agonist | EC50 [2]: 2.5 nM |
| 5350 | CC(=O)NC1CCc2[nH]c3ccccc3c2C1 (stereo not given) | – | – |
| 1.98 | COc1ccc2c(c1)c1c(n2C)CCCC1NC(=O)C(F)(F)F (stereo not given) | Agonist | – |
| 271 | COc1ccc2c(c1)c1c(n2C)CCCC1NC(=O)C1CCC1 (stereo not given) | Agonist | – |
| 1060 | CCCC(=O)NC1CCc2[nH]c3ccccc3c2C1 (stereo not given) | – | Activity [6]: inactive |
| 215 | CCCC(=O)NC1CCCc2c1c1ccccc1n2C (stereo not given) | Agonist | – |
| 4460 | Cn1c2c(c3ccccc31)C(NC(=O)C1CC1)CCC2 (stereo not given) | Agonist | – |
| 219 | COc1ccc2[nH]c3c(c2c1)CC(NC(C)=O)CC3 (stereo not given) | Agonist | – |
| 0.97 | COc1ccc2c(c1)c1c(n2C)CCCC1NC(C)=O (stereo not given) | Agonist | – |
| 1.44 | CCC(=O)NC1CCCc2c1c1cc(OC)ccc1n2C (stereo not given) | Agonist | – |
| 560 | CCCC(=O)NC1CCc2[nH]c3ccc(OC)cc3c2C1 (stereo not given) | Agonist | EC50 [2]: 10000 nM |
| 30 | COc1ccc2c(c1)c1c(n2C)CCCC1NC(=O)C1CC1 (stereo not given) | Agonist | – |
| 254 | COc1ccc2c(c1)c(CCNC(C)=O)cn2C | – | – |
| 740 | O=C(CBr)NC1CCc2[nH]c3ccccc3c2C1 (stereo not given) | – | EC50 [2]: < 1000 nM; Activity [3]: Partial agonist |
| 102 | COc1ccc2[nH]c3c(c2c1)CC(NC(=O)C(F)(F)F)CC3 (stereo not given) | – | – |

Source: ChEMBL document CHEMBL1127919 (Bioorg Med Chem Lett, 1994)
